The values that follow are results of earlier work, collected in US20070155727A1, “Amide inhibitors of leukotriene A4 hydrolase” (Schering Aktiengessellschaft, priority 2005, published 2007).

The target of one data set is LTB4 receptor. The conditions noted are these: read-out: Kd, additional lower affinity LTB4 receptors; neutrophils.
The target of the next data set is BLT1. Particulars: human BLT1 and its mouse, rat and guinea pig orthologues.
Another data set relates to colitis. Particulars: eight weeks of treatment, cotton top tamarins.
For data set [1], the target named is T1, LTA4-h (Mus musculus, UniProt P24527).
T1 construct: host or cells: mouse blood ex vivo after oral dosing
T1 sequence (P24527 1-611): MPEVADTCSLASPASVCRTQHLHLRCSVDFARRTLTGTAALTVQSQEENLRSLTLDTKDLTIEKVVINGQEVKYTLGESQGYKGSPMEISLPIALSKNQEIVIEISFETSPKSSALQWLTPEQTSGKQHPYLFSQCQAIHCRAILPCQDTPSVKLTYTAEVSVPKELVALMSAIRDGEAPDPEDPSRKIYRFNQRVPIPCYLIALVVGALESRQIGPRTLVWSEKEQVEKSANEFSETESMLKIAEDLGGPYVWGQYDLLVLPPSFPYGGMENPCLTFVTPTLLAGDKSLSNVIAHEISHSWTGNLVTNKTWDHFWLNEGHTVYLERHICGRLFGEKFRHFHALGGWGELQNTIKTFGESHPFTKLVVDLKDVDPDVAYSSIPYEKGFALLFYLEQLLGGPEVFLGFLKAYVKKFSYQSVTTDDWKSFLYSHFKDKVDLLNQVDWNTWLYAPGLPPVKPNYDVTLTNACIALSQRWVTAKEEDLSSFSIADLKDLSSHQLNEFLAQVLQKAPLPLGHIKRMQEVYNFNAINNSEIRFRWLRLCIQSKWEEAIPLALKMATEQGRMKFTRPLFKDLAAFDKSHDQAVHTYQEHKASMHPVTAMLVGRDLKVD
The conditions noted are these: oral administration, mouse blood ex vivo.

The target of data set [2] is T2, LTA4-h (Rattus norvegicus, UniProt P30349).
T2 construct: and in rat peritoneum in vivo; host or cells: rat peritoneum in vivo
T2 sequence (P30349 1-611): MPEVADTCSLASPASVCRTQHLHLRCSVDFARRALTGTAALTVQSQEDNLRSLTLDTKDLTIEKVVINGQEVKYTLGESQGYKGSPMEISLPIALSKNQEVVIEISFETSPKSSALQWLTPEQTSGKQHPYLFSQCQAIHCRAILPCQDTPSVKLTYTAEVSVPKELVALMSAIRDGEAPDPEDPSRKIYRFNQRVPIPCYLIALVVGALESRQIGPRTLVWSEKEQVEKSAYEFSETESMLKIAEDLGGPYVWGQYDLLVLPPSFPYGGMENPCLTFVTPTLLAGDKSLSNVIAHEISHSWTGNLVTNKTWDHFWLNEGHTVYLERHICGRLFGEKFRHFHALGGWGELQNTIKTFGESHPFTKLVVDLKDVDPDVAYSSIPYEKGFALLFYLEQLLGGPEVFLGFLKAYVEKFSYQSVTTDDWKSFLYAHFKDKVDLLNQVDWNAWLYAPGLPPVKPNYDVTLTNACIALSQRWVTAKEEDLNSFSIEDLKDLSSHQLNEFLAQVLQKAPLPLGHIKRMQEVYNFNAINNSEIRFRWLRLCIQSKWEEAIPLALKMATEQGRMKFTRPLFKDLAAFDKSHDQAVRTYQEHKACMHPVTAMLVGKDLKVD
The conditions noted are these: oral administration, rat peritoneum in vivo.

For the molecule `CCCCC/C=C\C[C@@H](O)/C=C/C=C/C=C\[C@@H](O)CCCC(=O)O` [LTB4, Leukotriene B4], the Kd at LTB4 receptor was above 60 nM; on BLT1, 0.1 to 0.7 nM.

`CN(CCCOc1ccc(Cc2ccccc2)cc1)CCC(=O)O.Cl` [SC57461]: the colitis symptoms entry with colitis is recorded as “significantly improved colitis symptoms”. Besides, the “inhibition of ionophore-induced LTB4 production” value at LTA4-h [1] and at LTA4-h [2] was “caused inhibition of ionophore-induced LTB4 production” each time.

What is called Kd is the equilibrium constant for the complex coming apart.
